Legend:
[1] = test system: thrombin generation in murine Balb/c plasma with rhAPC; assay: Thrombin generation in murine Balb/c plasma in the presence of rhAPC; format: biochemical, mouse
Experimental: BU titer values for FVIII antibodies added to FVIII-deficient plasma were determined using a modified Nijmegen Bethesda assay (Barrow and Lollar; JTH 2006, 4:2223-2229). Briefly, antibody was serially diluted in HBS with 0.05% Tween 80 and mixed 1:1 with pooled normal plasma that was supplemented with 100 mM Imidazole, pH 7.0. Samples were incubated at 37° C. for 2 hours then assayed by aPTT with APTT XL reagent (Pacific Hemostasis). A standard curve was derived from a serial dilution of normal plasma into FVIII deficient plasma that was also mixed 1:1 with HBST and incubated at 37° C. for 2 hours. Percent FVIII activity was plotted versus mg/ml of antibody and residual activity of 50% was defined as 1 BU/ml. In addition, endogenous thrombin potential (ETP) assays were performed as described (3). Briefly FVa mutants or saline were added to human or murine plasma (George King Bio-Medical; mouse source, 50% v/v) supplemented with […] corn trypsin inhibitor (Haematologic Technologies), 10 mM CaCl2, 10 μM phospholipid vesicles (80% phosphatidylcholine, 20% phosphatidylserine, prepared as described (6), 0.2 pM soluble tissue factor (Innovin®, Dade Behring), and 0.4 mM Z-Gly-Gly-Arg-AMC (thrombin substrate, Bachem) in HBS. After mixing, 100 μL was transferred to a FluoroNunc microtiter plate at 37° C. to monitor fluorescence (excitation at 360 nm/emission at 460 nm; Gemini EM fluorescent plate reader (Molecular Devices)). Fluorescence time course data were converted to nM thrombin as described (7). ETP, defined as the area under the curve, was determined using Prism 5.04 (Graphpad).
(§1) APC-mediated inactivation of FVa was analyzed in ETP assays and aPTT clotting assays. FVa mutants were incubated with equal volumes of either recombinant human APC (Xigris®) or buffer in human and murine Balb/c plasma.

[2] = test system: thrombin generation in FVIII-deficient plasma; assay: Thrombin generation (ETP) assay in FVIII-deficient plasma; format: biochemical, human; settings: increasing concentrations of ^superFVa alone
Experimental: Endogenous thrombin potential (ETP) assays were performed as described (19). Briefly, plasma samples supplemented with CTI, TF, PCPS vesicles and coagulation factors were preincubated with the plasma at 37° C. Thrombin generation was initiated by addition of CaCl2 and Z-Gly-Gly-Arg-AMC in HBS/0.5% BSA. The final reaction mixture contained, 50% plasma, 0.2 pM TF, […] PCPS vesicles, 0.725 μM CTI, 0.5 mM Z-GGR-AMC and 7.6 mM CaCl2 in a total volume of 100 μL. In some experiments, 1.25 μg/ml anti-FVIII antibody was added to the plasma and ETP was determined after 1 hour of preincubation. Fluorescence was measured at excitation/emission wavelengths of […] using Gemini EM fluorescent plate reader (Molecular Devices). Fluorescence time course data were converted to nM thrombin as described (20). ETP, defined as the area under the curve (AUC) and the peak height were determined using Origin or GraphPad Prism software.

Balb/c mice = assay: Ex vivo whole blood aPTT after intravenous APC in Balb/c mice; set-up: species or system mouse
Experimental: Recombinant murine APC was administered intravenously to Balb/c mice by tail vein injection 2 minutes prior to retroorbital blood harvest in siliconized microcapillaries (75 μL) prefilled with 20 μL Sodium-Citrate (3.8%). Whole blood aPTT was performed immediately, whereby 50 μL of blood were mixed with 50 μL of aPTT reagent (APTT-XL, Pacific Hemostasis) and incubated at 37° C. for 3 minutes in the presence of FVa or buffer. Following addition of 25 μL of 130 mM CaCl2 in HBS, 0.5% BSA, the clotting time was recorded using an ST4 coagulometer (Diagnostica Stago).

[3] = test system: Balb/c mice treated with anti-FVIII antibodies; assay: Tail clip bleeding assay in Balb/c mice treated with anti-FVIII antibodies; format: in vivo, mouse; settings: 20 minutes
Experimental: Mice were anesthetized, placed on temperature controlled heating pads (37° C.), and the distal portion of the tail was cut at 1.5 mm diameter after which the tail was immersed in a predefined volume of 37° C. saline (0.9% NaCl) for 20 minutes. Blood loss was determined by the hemoglobin concentration in the saline solution after red cell lysis with 2% acetic acid and measured by absorbance at 405 nm. Using a hemoglobin standard derived from defined blood volumes, blood loss was calculated assuming a hematocrit of 46% and expressed in μL/g body weight. Groups of FVIII-deficient mice were injected intravenously (retro-orbital) within 2 minutes prior to tail cut with equal volumes ([…]) of sterile saline for injection (0.9%, Hospira Inc.), rhFVIII 200 units/kg FVIII (Xyntha®, Pfizer, NY, N.Y., USA) ^superFVa, rhFVIIa (NovoSeven®, NovoNordisk, Bagsvaerd, Denmark) or a combination of ^superFVa and rhFVIIa. All agents were diluted in sterile sodium chloride 0.9% for injection (Hospira Inc). […]
To further elucidate the efficiency of ^superFVa to reduce bleeding in presence of inhibitors for FVIII either alone or in combination with rhFVIIa, blood loss during a 20 minute bleeding period was determined in a tail transection model in Balb/c mice treated with anti-FVIII antibodies (0.25 mg/kg). […]

[4] = test system: aPTT clotting time in human plasma; assay: aPTT clotting assay in human plasma with rhAPC; format: biochemical
Experimental: as §1
Plasma (50 μL) was mixed with 50 μL of a PTT reagent (APTT-XL, Pacific Hemostasis) and incubated at 37° C. for 3 minutes in the presence of FVa either with recombinant human APC or buffer. Following addition of 25 μL of 50 mM CaCl2 in HBS, 0.5% BSA, the clotting time was recorded using an ST4 coagulometer (Diagnostica Stago).

Substance: ^superFVa: engineered APC-resistant FVa variant (SEQ ID NO:4): R306Q, R506Q, R679Q, Cys609-Cys1691 disulfide, S2183A, B-domain deleted
- ETP restored ([1]; ETP maximally suppressed by APC): 90-100%
- effect on thrombin generation suppressed by APC ([1]; concentrations where ^superFVa restores): fully restored thrombin generation
- increase in ETP [2]: ~2.5 fold
- increase in peak height [2]: ~2.5 fold
- effect on whole blood aPTT clotting times (Balb/c mice; 1 nM added to whole blood after iv APC 0.5 mg/kg): significantly normalized aPTT clotting times
- mean whole blood aPTT (Balb/c mice; FVa variant added ex vivo to whole blood drawn after APC 0.5 mg/kg injection): 30 s
- blood loss ([3]; ^superFVa 10 U/kg): 19.47 µL/g
- blood loss ([3]; ^superFVa 40 U/kg): 9.97 µL/g
- aPTT ([4]; 0.05 U/mL FVa variants, 10 nM APC, human plasma, ~100 seconds without FVa): fully corrected the aPTT
- lower concentration normalizing the aPTT compared to FVa ([4]; human plasma with APC): 100 fold
